{"source": "patent US8735650B2", "about": "“Methods of modulating production of phenylpropanoid compounds in plants” (Yissum Research Development Company of the Hebrew …, priority 2007, dated 2014)", "key": {"[1]": {"system": "Pap1-transgenic petunia flowers", "experiment": "Phe feeding, volatile emission by dynamic headspace GC-MS", "assay_type": "in vivo, Petunia hybrida", "method": "(§1) Volatiles emitted from detached petunia flowers were collected using an adsorbent trap consisting of a glass tube containing 200 mg of polymer Porapak Type Q (80/100 mesh; Alltech, Deerfield, Ill.) held in place with plugs of silanized glass wool (Guterman et al., 2006). Trapped volatiles were eluted using 3 ml hexane, and 2 μg iso-butylbenzene was added per sample as an internal standard for each. To determine pool sizes of volatile compounds, limbs were ground in liquid nitrogen and extracted in hexane (4 ml g^−1 of tissue) containing 0.5 μg ml^−1 iso-butylbenzene as the internal standard. Following overnight incubation with shaking at 150 rpm, extract was centrifuged at 10,500 g for 10 min and the supernatant filtered through a 25-ml syringe with a […] sterile nylon filter. To assess whether the bound form of benzaldehyde accumulated in petunia limbs, tissue (0.6 g) was incubated with 9 ml phosphate citrate buffer pH 4.5 with or without 15 units of glucosidase mixture Novarom G (Novo Nordisk Ferment Ltd., Bagsvaerd, Denmark) at 37° C. overnight, and then transferred to −20° C. to stop enzymatic reactions. Hexane (10 ml) containing 0.5 μg ml^−1 iso-butylbenzene as an internal standard was added to each sample, and following vortexing, the upper phase was recovered.\n(§2) GC-MS analysis was performed using a device composed of a Pa1 auto-sampler (CTC Analytic, Zwingen, Switzerland), a TRACE GC 2000 equipped with an Rtx-5SIL MS (Restek, i.d. 0.25 μm, 30 m×0.25 mm) fused-silica capillary column, and a TRACE DSQ quadrupole mass spectrometer (ThermoFinnigan, Hemel, UK). Helium was used as the carrier gas at a flow rate of 0.9 ml min^−1. The injection temperature was set to 250° C. (splitless mode), the interface to 280° C., and the ion source adjusted to 200° C. The analysis was performed under the following temperature program: 5 min of isothermal heating at 50° C., followed by a 5° C. min^−1 oven temperature ramp to […], and a final increase from 250 to 280° C. at 10° C. min^−1. The transfer line temperature was 280° C. The system was equilibrated for 1 min at 70° C. before injection of the next sample. Mass spectra were recorded at 2 scan s^−1 with a scanning range of 40 to 450 mass-to-charge ratio, and an electron energy of 70 eV. Compounds were tentatively identified (>95% match) based on NIST/EPA/NIH Mass Spectral Library (Data Version: NIST 05, Software Version 2.0d) using the XCALIBUR v1.3 program (ThermoFinnigan) library. Further identification of compounds was based on comparison of mass spectra and retention times with those of authentic standards (Sigma, Milwaukee, Wis.) analyzed under similar conditions.\n(§3) For evaluating the affect of Phe feeding on volatile production, control and Pap1-transgenic flowers were collected at 0800 hour and 1600 hour, placed in a glass vial containing 10 ml of water with or without 5 mg L-phenylalanine (Duchefa, Haarlem, Netherlands) and headspace was collected during the day (0800-1600 hours) and night (1600-0800 hours). To assess internal pools of volatiles, control and Pap1-transgenic flowers collected at 1600 hour were placed in a glass vial containing 10 ml of water with or without L-phenylalanine and at 2300 hour volatile were extracted as above."}, "control petunia flowers": {"system": "control petunia flowers", "experiment": "Phe feeding, volatile emission by dynamic headspace GC-MS", "assay_type": "in vivo, Petunia hybrida", "conditions": "during the night", "method": "as §1, §2, §3"}, "[2]": {"conditions": "Phe fed vs non-fed Pap1-transgenic flowers, during the day"}}}
{"smiles": "N[C@@H](Cc1ccccc1)C(=O)O", "note": "[Phe, L-phenylalanine]", "values": [{"measurement": "volatile accumulation and emission", "setting": "[1]; Pap1-transgenic flowers, Phe feeding during the night", "value": "unaffected"}, {"measurement": "increase in benzaldehyde emission", "setting": "[1]; [2]", "value": "about 7 fold"}, {"measurement": "increase in methylbenzoate emission", "setting": "[1]; [2]", "value": "~5", "unit": "fold"}, {"measurement": "reduction in benzaldehyde emission", "setting": "control petunia flowers", "value": "2-3 fold"}, {"measurement": "reduction in methylbenzoate emission", "setting": "control petunia flowers", "value": "2-3 fold"}]}
